Patent publication US20230250095A1, “BENZIMIDAZOLE DERIVATIVES, PREPARATION METHOD THEREFOR AND MEDICAL USE THEREOF” (TUOJIE BIOTECH(SHANGHAI) CO., LTD., priority 2020, published 2023)

Experiments:
[1] = Caco-2 permeability assay; format: in vitro ADME; settings: human
Protocol: The apparent permeability coefficient (Papp) of the analytical drug was determined by liquid chromatography-tandem mass spectrometry (LC/MS/MS) through a Caco-2 cell model.
The transfer rate of drug from the apical end to the basal end was determined. 108 μL of HBSS (25 mM HEPES, pH 7.4) containing 10 μM test compound was added to the apical end of the upper chamber of Transwell (purchased from Corning) containing Caco-2 cells (purchased from ATCC) at a density of 6.86×10^5 cells/cm^2, and meanwhile, 8 μL of the sample was added, as an initial dosing-end sample (A-B), to a new 96-well plate to which 72 μL of HBSS (25 mM HEPES, pH 7.4) and 240 μL of acetonitrile (containing 100 nM alprazolam, 200 nM caffeine and 100 nM tolbutamide) had been added, and the plate was vortexed at 1000 rpm for 10 min. 300 μL of HBSS (25 mM HEPES, pH 7.4) was added to the basal end.
The transfer rate of drug from the basal end to the apical end was determined. 308 μL of HBSS (25 mM HEPES, pH 7.4) containing 10 μM test compound was added to wells of the basal end of the plate, and meanwhile, 8 μL of the sample was added, as an initial dosing-end sample (B-A), to a new 96-well plate to which 72 μL of HBSS (25 mM HEPES, pH 7.4) and 240 μL of acetonitrile (containing 100 nM alprazolam, 200 nM caffeine and 100 nM tolbutamide) had been added. The plate was vortexed at 1000 rpm for 10 min, and 100 μL of HBSS (25 mM HEPES, pH 7.4) was added to the apical end.
The transfer rate from the apical end to the basal end and the transfer rate from the basal end to the apical end need to be determined simultaneously.
At the end of the transfer cycle, 8 μL of the sample was taken from the dosing end (apical end of A-B flow and basal end of B-A flow) and added to 72 μL of HBSS (25 mM HEPES, pH 7.4) and 240 μL of acetonitrile (containing 100 nM alprazolam, 200 nM caffeine and 100 nM tolbutamide), and the mixture was added to a new 96-well plate. 80 μL of the liquid was taken directly from each of the basal end of the A-B flow and the apical end of the B-A flow, and added together with 240 μL of acetonitrile (containing 100 nM alprazolam, 200 nM caffeine and 100 nM tolbutamide) to a new 96-well plate. The plates were vortexed at 1000 rpm for 10 min. The samples were centrifuged at 4000 rpm for 30 min. 100 μL of the supernatant was transferred to a new 96-well plate. All samples were analyzed by LC-MS/MS with 100 μL of pure water.
Data were calculated using Microsoft Excel and peak areas were calculated from the chromatograms. The apparent permeability coefficient (Papp) is in cm/s and is calculated using the following formula: […]
Papp is apparent permeability (cm/s×10^−6);
The outflow ratio can be determined by the following equation: […]

[2] = In vivo pharmacokinetic experiment in rats, intragastric administration; settings: SD rats, 5 mg/kg
Protocol: The drug concentrations in the plasma of the test animals (rats) at different time points after intragastric administration of the compound of the present disclosure were determined by an LC/MS/MS method. The pharmacokinetic behavior in rats of the compound of the present disclosure was studied and its pharmacokinetic profile was evaluated.
Male, healthy SD rats of SPF grade, 6-8 weeks old, 3 rats in each group.
Intragastric administration: a certain amount of compound was weighed and prepared into a 1 mg/mL white suspension by adding 0.5% by volume of hydroxypropyl methylcellulose, 0.1% by volume of tween 80 and 99.4% by volume of water.
SD rats were administered intragastrically with compound 4 or BLU-5937 at a dose of 5 mg/kg after fasting overnight.
Rats were administered intragastrically with the compound of the present disclosure. 0.2 mL of blood was collected from the jugular vein at 0.25 h, 0.5 h, 1 h, 2 h, 4 h, 8 h and 24 h after the administration, placed in a tube containing EDTA-K2, separated by centrifugation at 4° C. at 4000 rpm for 5 min to obtain plasma, which was stored at −75° C.
Determination of the content of the test compounds at different concentrations in the plasma of rats after intragastric administration: 50 μL of rat plasma at each time point after the administration was taken, 200 μL of a solution of internal standard dexamethasone (50 ng/mL) in acetonitrile was added thereto, and the mixture was vortexed for 30 s to be mixed well, centrifuged at 4° C. at 4700 rpm for 15 min. The supernatant of the plasma sample was subjected to 3-fold dilution with water, and 2.0 μL of the dilution was taken for LC/MS/MS analysis.

With `CC(=O)N1CCO[C@@H](Cn2c(-c3c(F)cc(N4CCCC4=O)cc3Cl)nc3cc(C)ccc32)C1` [Compound 4, (S)-1-(4-(1-((4-acetylmorpholin-2-yl)methyl)-5-methyl-1H-benzo[d]imidazol-2-yl)-3-chloro-5-fluorophenyl)pyrrolidin-2-one] the Papp A→B at 10 μM ([1]; Caco-2, 10 μM test compound, apical to basal, pH 7.4) was 8.1 ×10⁻⁶ cm/s, the efflux ratio at 10 μM ([1]; Caco-2, Papp (B-A)/Papp (A-B), read-out: Outflow ratio) was 3.8 and the “V” value [2] was 2.05 L/kg. The Tmax ([2]; male, rat, plasma, po) was 25.2 min, the half-life ([2]; male, rat, plasma, po) was 57.6 min and the AUC(0-t) ([2]; male, rat, po, plasma) was 408 ng·h/mL. The Cmax ([2]; male, rat, po, plasma) was 356 ng/mL.
